System: HMC1
Assay: Inhibition of A23187-induced IL-6 production in human HMC1 cells incubated for 30 mins prior to A23187 challenge measured after 24 hrs by ELISA
Assay type: functional, cell-based

IC50 [µM]	Structure (SMILES)
1.62	CC(C)=CCc1cc(C2CC(=O)c3ccc(O)c(CC=C(C)C)c3O2)c(O)cc1O (stereo not drawn)
4.02	COc1ccc(-c2cc3ccc(O)cc3o2)c(O)c1
0.73	CC(C)=CCc1cc([C@@H]2CC(=O)c3ccc(O)c(CC=C(C)C)c3O2)ccc1O [GLABROL]
3.01	Oc1ccc2c(c1)OC[C@H]1c3cc4c(cc3O[C@@H]21)OCO4 [MAACKIAIN]

System: not listed separately
Assay: Cytotoxicity against human HMC1 cells assessed as cell viability
Assay type: cell-based

Structure (SMILES)	IC50 [µM]
CC(C)=CCc1cc(C2CC(=O)c3ccc(O)c(CC=C(C)C)c3O2)c(O)cc1O (stereo not drawn)	> 20
COc1ccc(-c2cc3ccc(O)cc3o2)c(O)c1	> 20
CC(C)=CCc1cc([C@@H]2CC(=O)c3ccc(O)c(CC=C(C)C)c3O2)ccc1O [GLABROL]	> 20
Oc1ccc2c(c1)OC[C@H]1c3cc4c(cc3O[C@@H]21)OCO4 [MAACKIAIN]	> 20

— ChEMBL document CHEMBL3351288, “Flavonoids and arylbenzofurans from the rhizomes and roots of Sophora tonkinensis with IL-6 production inhibitory activity” (Bioorg Med Chem Lett, 2014)
